For this assay, the system named is CD8F1 mice, subcutaneous mammary adenocarcinoma, T/C%. In words: NCI In Vivo Anticancer Drug Screen. Data for tumor model Mammary Adenocarcinoma CD8F1 (subcutaneous) in CD8F1. As to conditions: higher = larger tumour. The essentials: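 Compound-treated versus vehicle-treated mice with transplantable tumors; survival or tumor size compared as T/C.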

“And” between values parts separate entries of the source, which are not always exact repeats. Equal values may be shown once. Results filed as inconclusive are left out.

On to `CC[As](=O)(O)CC`, for which the T/C (endpoint: mean tumor weight, dose: 12.5 mg/kg/injection, schedule: Q07DX005 (ip), vehicle: saline) is 100 % of control; the T/C (endpoint: mean tumor weight, dose: 12.5 mg/kg/injection, schedule: Q07DX007 (ip), vehicle: saline) was 70 % of control; the T/C (endpoint: mean tumor weight, dose: 25.0 mg/kg/injection, schedule: Q07DX005 (ip), vehicle: saline) was 34 % of control; the T/C (endpoint: mean tumor weight, dose: 25.0 mg/kg/injection, schedule: Q07DX007 (ip), vehicle: saline) is 56 % of control; the T/C (endpoint: mean tumor weight, dose: 50.0 mg/kg/injection, schedule: Q07DX007 (ip), vehicle: saline) was 38 % of control; the T/C (endpoint: mean tumor weight, dose: 100.0 mg/kg/injection, schedule: Q07DX005 (ip), vehicle: saline) was 98 % of control. Further, the T/C was 111 % of control (endpoint: mean tumor weight, dose: 100.0 mg/kg/injection, schedule: Q07DX007 (ip), vehicle: saline); 41 % of control (endpoint: mean tumor weight, dose: 200.0 mg/kg/injection, schedule: Q07DX005 (ip), vehicle: saline); 53 % of control (endpoint: mean tumor weight, dose: 200.0 mg/kg/injection, schedule: Q07DX007 (ip), vehicle: saline); 96 % of control and 119 % of control (endpoint: median tumor weight (est.), dose: 12.5 mg/kg/injection, schedule: Q07DX005 (ip), vehicle: saline); 62 % of control and 79 % of control (endpoint: median tumor weight (est.), dose: 25.0 mg/kg/injection, schedule: Q07DX005 (ip), vehicle: saline); 121 % of control (endpoint: median tumor weight (est.), dose: 50.0 mg/kg/injection, schedule: Q07DX005 (ip), vehicle: saline). Moreover, where the note is “endpoint: median tumor weight (est.), dose: 200.0 mg/kg/injection, schedule: Q07DX005 (ip), vehicle: saline”, the T/C is 20 % of control and 41 % of control and 43 % of control.
Turning to `COC1C(OC(=O)/C=C/C=C/C=C/C=C/C(=O)O)CCC2(CO2)C1C1(C)OC1CC=C(C)C` (centres undefined), the T/C reads like this: (endpoint: median tumor weight (est.), dose: 25.0 mg/kg/injection, schedule: Q07DX005 (ip), vehicle: suspension in saline) 102 % of control; (endpoint: median tumor weight (est.), dose: 50.0 mg/kg/injection, schedule: Q07DX005 (ip), vehicle: suspension in saline) 106 % of control; (endpoint: median tumor weight (est.), dose: 100.0 mg/kg/injection, schedule: Q07DX005 (ip), vehicle: suspension in saline) 91 % of control; (endpoint: median tumor weight (est.), dose: 200.0 mg/kg/injection, schedule: Q07DX005 (ip), vehicle: suspension in saline) 94 % of control; (endpoint: median tumor weight change, dose: 125.0 mg/kg/injection, schedule: Q01DX001 (ip), vehicle: suspension in saline) 85 % of control; (endpoint: median tumor weight change, dose: 250.0 mg/kg/injection, schedule: Q01DX001 (ip), vehicle: suspension in saline) 56 % of control. In addition, under “endpoint: median tumor weight change, dose: 500.0 mg/kg/injection, schedule: Q01DX001 (ip), vehicle: suspension in saline”, the T/C was 58 % of control.
Turning to `COC(=O)C12OCC34C(CC5C(C)=CC(=O)C(O)C5(C)C3C(O)C1O)OC(=O)C(OC(=O)CC(C)C)C24` (centres undefined), the T/C was 107 % of control (endpoint: median tumor weight (est.), dose: 0.13 mg/kg/injection, schedule: Q07DX005 (ip), vehicle: saline + alcohol); 82 % of control (endpoint: median tumor weight (est.), dose: 0.5 mg/kg/injection, schedule: Q07DX005 (ip), vehicle: saline + alcohol); 64 % of control (endpoint: median tumor weight (est.), dose: 1.0 mg/kg/injection, schedule: Q07DX005 (ip), vehicle: saline + alcohol); 47 % of control (endpoint: median tumor weight (est.), dose: 2.0 mg/kg/injection, schedule: Q07DX005 (ip), vehicle: saline + alcohol).
On to `CN(Cc1cnc2nc(N)nc(N)c2n1)c1ccc(C(=O)N[C@@H](CCC(=O)O)C(=O)O)cc1`, for which the T/C was 192 % of control (endpoint: mean tumor weight (est.), dose: 20.0 mg/kg/injection, schedule: Q07DX006 (ip), vehicle: sodium bicarbonate); 91 % of control (endpoint: mean tumor weight (est.), dose: 75.0 mg/kg/injection, schedule: Q07DX004 (ip), vehicle: sodium bicarbonate); 90 % of control (endpoint: mean tumor weight (est.), dose: 100.0 mg/kg/injection, schedule: Q07DX004 (ip), vehicle: sodium bicarbonate); 84 % of control (endpoint: mean tumor weight, dose: 2.0 mg/kg/injection, schedule: Q01DX009 (ip), vehicle: saline); 234 % of control (endpoint: mean tumor weight, dose: 2.0 mg/kg/injection, schedule: Q01DX009 (ip), vehicle: sodium bicarbonate); 44 % of control (endpoint: mean tumor weight, dose: 4.0 mg/kg/injection, schedule: Q01DX009 (ip), vehicle: saline). In addition, the T/C reads like this: (endpoint: mean tumor weight, dose: 4.0 mg/kg/injection, schedule: Q01DX009 (ip), vehicle: sodium bicarbonate) 84 % of control; (endpoint: mean tumor weight, dose: 12.5 mg/kg/injection, schedule: Q07DX004 (ip), vehicle: saline) 87 % of control; (endpoint: mean tumor weight, dose: 25.0 mg/kg/injection, schedule: Q07DX004 (ip), vehicle: saline) 23 % of control; (endpoint: mean tumor weight, dose: 25.0 mg/kg/injection, schedule: Q07DX006 (ip), vehicle: saline) 44 % of control; (endpoint: mean tumor weight, dose: 50.0 mg/kg/injection, schedule: Q07DX003 (ip), vehicle: sodium bicarbonate) 50 % of control; (endpoint: mean tumor weight, dose: 50.0 mg/kg/injection, schedule: Q07DX004 (ip), vehicle: saline) 26 % of control. Further, the T/C is 93 % of control (endpoint: mean tumor weight, dose: 50.0 mg/kg/injection, schedule: Q07DX006 (ip), vehicle: saline); 43 % of control (endpoint: mean tumor weight, dose: 100.0 mg/kg/injection, schedule: Q07DX003 (ip), vehicle: sodium bicarbonate); 56 % of control (endpoint: mean tumor weight, dose: 100.0 mg/kg/injection, schedule: Q07DX006 (ip), vehicle: saline); 107 % of control (endpoint: mean tumor weight, dose: 150.0 mg/kg/injection, schedule: Q07DX005 (ip), vehicle: sodium bicarbonate); 70 % of control (endpoint: mean tumor weight, dose: 200.0 mg/kg/injection, schedule: Q07DX005 (ip), vehicle: sodium bicarbonate); 45 % of control (endpoint: mean tumor weight, dose: 250.0 mg/kg/injection, schedule: Q07DX005 (ip), vehicle: sodium bicarbonate). The T/C by setting is: (endpoint: median tumor weight (est.), dose: 2.5 mg/kg/injection, schedule: Q07DX005 (ip), vehicle: sodium bicarbonate) 63 % of control; (endpoint: median tumor weight (est.), dose: 5.0 mg/kg/injection, schedule: Q07DX005 (ip), vehicle: sodium bicarbonate) 110 % of control and 111 % of control; (endpoint: median tumor weight (est.), dose: 20.0 mg/kg/injection, schedule: Q07DX005 (ip), vehicle: sodium bicarbonate) 112 % of control; (endpoint: median tumor weight (est.), dose: 40.0 mg/kg/injection, schedule: Q07DX005 (ip), vehicle: sodium bicarbonate) 85 % of control and 107 % of control; (endpoint: median tumor weight (est.), dose: 80.0 mg/kg/injection, schedule: Q07DX005 (ip), vehicle: sodium bicarbonate) 20 % of control.
For the compound `Nc1nc2c(ncn2C2OC(CO)C(O)C2O)c(=O)[nH]1.Nc1nc2c(ncn2C2OC(CO)C(O)C2O)c(=O)[nH]1.[NH2-].[NH2-].[Pt+2]` (centres undefined), the T/C runs as follows: (endpoint: median tumor weight (est.), dose: 12.5 mg/kg/injection, schedule: Q07DX005 (ip), vehicle: water) 52 % of control; (endpoint: median tumor weight (est.), dose: 25.0 mg/kg/injection, schedule: Q07DX005 (ip), vehicle: water) 61 % of control; (endpoint: median tumor weight (est.), dose: 50.0 mg/kg/injection, schedule: Q07DX005 (ip), vehicle: water) 34 % of control; (endpoint: median tumor weight (est.), dose: 100.0 mg/kg/injection, schedule: Q07DX005 (ip), vehicle: water) 51 % of control; (endpoint: median tumor weight (est.), dose: 200.0 mg/kg/injection, schedule: Q07DX005 (ip), vehicle: water) 40 % of control.
As to `CN(C)c1ccc2c(N(C)C)cc(N(C)C)nc2c1`, the T/C is, setting by setting: (endpoint: median tumor weight (est.), dose: 3.12 mg/kg/injection, schedule: Q07DX005 (ip), vehicle: Klucel (hydroxypropylcellulose) (HPC)) 58 % of control; (endpoint: median tumor weight (est.), dose: 6.25 mg/kg/injection, schedule: Q07DX005 (ip), vehicle: Klucel (hydroxypropylcellulose) (HPC)) 78 % of control.

Values taken from PubChem BioAssay AID220 (DTP/NCI, 2004).
